Measured values published in patent US5384260A, “Detection of onset of antiestrogen resistance in breast cancer” (Board of Regents, The University of Texas System, priority 1993, dated 1995).
Where “and” joins values, the source holds several entries; their conditions need not be identical. Equal entries are not always repeated. Entries after “also recorded” stand apart in the source; their conditions may differ. Blank lines part the entries; values can stand above or below the compound they belong to.

Tests used:
MCF-7 tumors [1] = test: HPLC quantification of tamoxifen and cis/trans-4-hydroxytamoxifen ratio in MCF-7 tumors from tamoxifen-treated mice (total tumor, nuclear pellet, KCl nuclear extract); format: in vivo; conditions: for Mean 4-OH-TAM cis/trans ratio: p < 0.0005
Method: In order to examine the relationship between tamoxifen metabolites and tamoxifen resistance, athymic Balb/c nude mice were implanted with human breast cancer tumor cells (MCF-7). Mice were treated daily for 4-6 months with subcutaneous tamoxifen. After tamoxifen resistance developed and tumor progression was observed, mice were sacrificed, and tumors were collected. In addition, tamoxifen-sensitive tumors were collected from mice still responding to tamoxifen therapy.
Quantification of tamoxifen and its metabolites in tumor specimens was performed using photactivation and high performance liquid chromatography (HPLC) analysis. To summarize: Each tumor sample was weighed, spiked with an internal standard, and homogenized. Tissue samples were then extracted with 2% n-butanol in hexane and irradiated with high intensity ultraviolet light (254 nm). […] All solvents were of HPLC grade. Fluorescence of all compounds was measured at a wavelength of 266 nm. […] In some samples, the tumor was first homogenized and then the nuclear pellet obtained by centrifugation. HPLC tamoxifen measurements were made on extracts of the entire tumor specimen or on subcellular fractions including the cytosol or-the total nuclear pellet. In some cases, the nuclear pellet was further extracted in 0.4M KCl to extract primary metabolites bound to estrogen receptor.
The material extracted with KCl includes that bound to estrogen receptor.

human tumor specimens = test: HPLC of tamoxifen and 4-OH-TAM isomers in tumors of tamoxifen-treated patients (Example 2); format: in vivo; conditions: for cis versus trans 4-OH-TAM in tumor nuclear pellets: patients with clinically-evident tumor resistance, FIG. 8
Method: Quantification of tamoxifen and its metabolites in tumor specimens was performed using photactivation and high performance liquid chromatography (HPLC) analysis. To summarize: Each tumor sample was weighed, spiked with an internal standard, and homogenized. Tissue samples were then extracted with 2% n-butanol in hexane and irradiated with high intensity ultraviolet light (254 nm). Samples were analyzed by HPLC using a C-18 reverse phase column and eluted isocratically with a mobile phase of water (7%) and triethylamine (0.25%) in methanol. All solvents were of HPLC grade. Fluorescence of all compounds was measured at a wavelength of 266 nm. […] In some samples, the tumor was first homogenized and then the nuclear pellet obtained by centrifugation. HPLC tamoxifen measurements were made on extracts of the entire tumor specimen or on subcellular fractions including the cytosol or-the total nuclear pellet. In some cases, the nuclear pellet was further extracted in 0.4M KCl to extract primary metabolites bound to estrogen receptor.
1) identification and measurement of tamoxifen and its metabolites in tumors isolated from tamoxifen-treated patients who are known treatment failures;
There are two tamoxifen-sensitive tumors (L281 and G375) for comparison because patients responding to treatment are not usually biopsied during the responsive phase of their disease.

[2] = HPLC of tamoxifen and metabolites in MCF-7 mouse tumors (Example 3); conditions: mouse, mcf-7 tumor, 500 ug/day
Source text: (§1) Human breast tumors from various patients who failed tamoxifen therapy (20 mgs/day>one year) were obtained from the Breast Cancer Tumor Bank. A portion of the tumor was extracted, irradiated and analyzed by Mass Spectrometry (procedure described below). Tumor tissue was also obtained from an in vivo nude mouse model of acquired tamoxifen resistance. MCF-7 human breast tumors were harvested from nude mice after the development of tamoxifen resistance (4-6 months of tamoxifen administration, 500 ug/day). These tissues were frozen at -20° C. until analysis. Frozen tissue samples were weighed, homogenized, and extracted. Briefly, all samples were extracted with 6.0 ml of 2% butanol in hexane, vortexed for 1.0 min, and then centrifuged for 10 min at 1000×g. The organic phase was dried under N2 gas at 37° C. and reconstituted in 200 μl methanol prior to injection. The reconstituted samples were transferred to a Infrasil quartz cuvette (Fisher Scientific), irradiated for one minute with a 15 W Hg vapor lamp and injected onto a HPLC column.
(§2) The HPLC system consisted of a Beckman model 320 gradient liquid chromatograph, two model 110A pumps, and a model 420 controller. The HPLC was equipped with a reverse phase Altex C18 ultrasphere ODS column and a 100 μl injection loop. […] The flow rate of the mobil phase was set at 0.5 ml/min. The fluorescence of photochemically activated compounds was detected with an Applied Biosystems 980 fluorometer with excitation wavelength set at 266 nm. Retention times and peak heights were recorded with a Spectraphysics 4100 integrator.

MCF-7 tumors [3] = test: as above; conditions: for Presence in MCF-7 tamoxifen resistant mouse tumor: HPLC, FIG. 13
Source text: as §1, §2

[4] = in vivo; cited from earlier work
T47D human breast cell = conditions: cited from earlier work
[5] = in vitro; cited from earlier work
human breast tumors = test: HPLC and mass spectrometry of tamoxifen metabolites in human breast tumors failing tamoxifen (Example 3); format: in vivo; conditions: HPLC / EI-MS
Source text: as §1
The HPLC system consisted of a Beckman model 320 gradient liquid chromatograph, two model 110A pumps, and a model 420 controller. The HPLC was equipped with a reverse phase Altex C18 ultrasphere ODS column and a 100 μl injection loop. The mobil phase consisted of 7% H2 O and […] triethylamine in methanol. The flow rate of the mobil phase was set at 0.5 ml/min. The fluorescence of photochemically activated compounds was detected with an Applied Biosystems 980 fluorometer with excitation wavelength set at 266 nm. Retention times and peak heights were recorded with a Spectraphysics 4100 integrator.
Non-irradiated samples were also injected onto the HPLC column and fractions were collected every minute. Fractionations corresponding to the retention times noted for the bisphenol and monophenol tamoxifen were further evaluated using mass-Spectrometry. The mass spectrometric behavior of the mono and bis phenols under electron impact ionization mass-spectrometry (EI-MS) was utilized. HPLC separated samples, in glass vials, were extracted with methanol, injected into glass capillaries and dried. Samples were introduced via a direct insertion probe. Spectra were recorded at 70 eV over the mass range of 70-500 at 10 seconds per decade with a resolution of 1000. The probe was heated in stages to 200° C.

[6] = cited from earlier work
[7] = resistant MCF-7 mouse tumors, N = 10 (N-DES 9, monophenol 8)
[8] = sensitive MCF-7 mouse tumors, N = 6 (bisphenol 5)

Compound: CCC(=C(c1ccc(O)cc1)c1ccc(OCCN(C)C)cc1)c1ccccc1 [4-OH-TAM, 4-hydroxytamoxifen]
Cis/trans 4-OH-TAM ratio, individual tumor (MCF-7 tumors [1]; resistant MCF-7 tumors (N = 16)): 0.86 and 0.812 and 0.442 and 0.929 and 1.019 and 0.777 and 1.073 and 0.49 and 0.724 and 0.868 and 0.59 and 0.73 and 1.16 and 0.76 and 0.932
cis 4-OH-TAM/trans-4-OH-TAM ratio in KCl-extracted nuclear pellets compared with other fractions (MCF-7 tumors [1]; resistant tumor, FIG. 7): larger in the nuclear pellets extracted with KCl
C/T-OH-TAM ratio (summary) (MCF-7 tumors [1]; resistant tumors): 0.8-0.9
Median cis/trans 4-OH-TAM ratio (MCF-7 tumors [1]; resistant tumors): 0.84
Number of tumors with cis/trans ratio > 0.60 (MCF-7 tumors [1]; resistant tumors): 13/16
Number of tumors with cis/trans ratio ≤ 0.60 (MCF-7 tumors [1]; resistant tumors): 3/16
Range of cis/trans 4-OH-TAM ratio (MCF-7 tumors [1]; resistant tumors): 0.442-1.16
Mean 4-OH-TAM cis/trans ratio (MCF-7 tumors [1]; resistant tumors, SD = 0.196): 0.8141
cis/trans 4-OH-TAM ratio, resistant compared with sensitive tumors (MCF-7 tumors [1]; resistant vs sensitive): higher cis/trans ratios; also recorded: increase; also recorded: lower in sensitive than in resistant tumors; also recorded: the cis/trans ratio is higher in the resistant tumor
Cis/trans 4-OH-TAM ratio, individual tumor (MCF-7 tumors [1]; sensitive MCF-7 tumors (N = 16)): 0.575 and 0.588 and 0.472 and 0.56 and 0.645 and 0.428 and 0.446 and 0.4632 and 0.476 and 0.506 and 0.34 and 0.486 and 0.38 and 1.0 and 0.77
C/T-OH-TAM ratio (summary) (MCF-7 tumors [1]; sensitive tumors): 0.4-0.5
Median cis/trans 4-OH-TAM ratio (MCF-7 tumors [1]; sensitive tumors): 0.48
Number of tumors with cis/trans ratio > 0.60 (MCF-7 tumors [1]; sensitive tumors): 3/16
Number of tumors with cis/trans ratio ≤ 0.60 (MCF-7 tumors [1]; sensitive tumors): 13/16
Range of cis/trans 4-OH-TAM ratio (MCF-7 tumors [1]; sensitive tumors): 0.34-1.0
Mean 4-OH-TAM cis/trans ratio (MCF-7 tumors [1]; sensitive tumors, SD = 0.168): 0.5297
cis versus trans 4-OH-TAM in tumor nuclear pellets (human tumor specimens): greater cis than trans levels
cis/trans ratios in total tumor extract (human tumor specimens; tamoxifen-resistant patients' tumors, majority): relatively high cis/trans ratios in the total tumor extract
cis/trans ratios (human tumor specimens; two tumors from tamoxifen-sensitive patients): low cis/trans ratios

Compound: CC/C(=C(\c1ccccc1)c1ccc(O)cc1)c1ccccc1 [Trans-metabolite E]
Estrogen agonist activity of metabolite E isomers (T47D human breast cell): weak partial agonist
Isomerization to cis metabolite E [5]: demonstrated in vitro

Compound: CC/C(=C(/c1ccc(O)cc1)c1ccc(OCCN(C)C)cc1)c1ccccc1 [cis 4-hydroxytamoxifen]
cis versus trans 4-OH-TAM in tumor nuclear pellets (human tumor specimens): higher cis 4-OH-TAM in the nuclear pellets

Compound: CC/C(=C(/c1ccccc1)c1ccc(O)cc1)c1ccccc1 [cis-metabolite E]
Estrogen agonist activity of metabolite E isomers (T47D human breast cell): potent estrogen agonist
Stimulation of T47D human breast cell growth (T47D human breast cell): more potent than bisphenol

Compound: CC/C(=C(\c1ccc(O)cc1)c1ccc(OCCN(C)C)cc1)c1ccccc1 [trans 4-hydroxytamoxifen]
40H trans peak height (human tumor specimens; pellet (KCl nuclear extract), nd = not detectable, listed as 40H trans): 1024 and 1194

Second part, led by results:

concentration at 4380 h [2]: 135 ng/g
Tamoxifen and metabolite concentrations, mean (X) (MCF-7 tumors [3]; [7]): 71.28 .eta.g/g tissue
Tamoxifen and metabolite concentrations, mean (X) (MCF-7 tumors [3]; [8]): 279.95 .eta.g/g tissue
Compound: CCC(=C(c1ccccc1)c1ccc(OCCNC)cc1)c1ccccc1 [N-desmethyltamoxifen]
Tamoxifen and metabolite concentrations, individual animal (MCF-7 tumors [3]; resistant MCF-7 mouse tumors): 19.65 .eta.g/g tissue and 68.12 .eta.g/g tissue and 38.44 .eta.g/g tissue and 135.44 .eta.g/g tissue and 50.27 .eta.g/g tissue and 65.70 .eta.g/g tissue and 127.29 .eta.g/g tissue and 100.43 .eta.g/g tissue
Tamoxifen and metabolite concentrations, individual animal (MCF-7 tumors [3]; sensitive MCF-7 mouse tumors): 124.70 .eta.g/g tissue and 331.82 .eta.g/g tissue and 534.62 .eta.g/g tissue and 5.95 .eta.g/g tissue and 322.99 .eta.g/g tissue and 359.67 .eta.g/g tissue
Occurrence in human serum [4]: major metabolite found in human serum

Presence in human breast cancer tissue (human breast tumors; listed as bisphenoltamoxifen): also present in these patients
Tamoxifen and metabolite concentrations, mean (X) (MCF-7 tumors [3]; [7]): 21.33 .eta.g/g tissue
Tamoxifen and metabolite concentrations, mean (X) (MCF-7 tumors [3]; [8]): 392.43 .eta.g/g tissue
Compound: CCC(=C(c1ccc(O)cc1)c1ccc(O)cc1)c1ccccc1 [bisphenol]
Presence in human breast cancer tissue (human breast tumors): the presence of bisphenol could not be confirmed
Presence in MCF-7 tamoxifen resistant mouse tumor (MCF-7 tumors [3]): A very small peak was evident at a retention time similar to bisphenol
Tamoxifen and metabolite concentrations, individual animal (MCF-7 tumors [3]; resistant MCF-7 mouse tumors): 15.12 .eta.g/g tissue and 18.34 .eta.g/g tissue and 4.26 .eta.g/g tissue and 3.93 .eta.g/g tissue and 32.75 .eta.g/g tissue and 9.77 .eta.g/g tissue and 43.87 .eta.g/g tissue and 52.72 .eta.g/g tissue and 23.38 .eta.g/g tissue
Tamoxifen and metabolite concentrations, individual animal (MCF-7 tumors [3]; sensitive MCF-7 mouse tumors): 44.27 .eta.g/g tissue and 33.90 .eta.g/g tissue and 39.80 .eta.g/g tissue and 1491.44 .eta.g/g tissue and 352.76 .eta.g/g tissue

Presence in human breast cancer tissue (human breast tumors): Peaks were also noted
Presence in MCF-7 tamoxifen resistant mouse tumor (MCF-7 tumors [3]): noted on the chromatogram
Compound: CCC(=C(c1ccc(O)cc1)c1ccc(OCCNC)cc1)c1ccccc1 [metabolite Bx]

Presence in human breast cancer tissue (human breast tumors): Peaks were also noted
Compound: CCC(=C(c1ccccc1)c1ccc(OCCN)cc1)c1ccccc1 [metabolite Z, didesmethyltamoxifen]

Presence in human breast cancer tissue (human breast tumors): confirmed the presence of monophenol
concentration at 4380 h [2]: 22 ng/g
Tamoxifen and metabolite concentrations, mean (X) (MCF-7 tumors [3]; [7]): 49.35 .eta.g/g tissue
Tamoxifen and metabolite concentrations, mean (X) (MCF-7 tumors [3]; [8]): 119.78 .eta.g/g tissue
Compound: CCC(=C(c1ccccc1)c1ccc(O)cc1)c1ccccc1 [monophenol]
Presence in human breast cancer tissue (human breast tumors; listed as monophenoltamoxifen): present in tumors isolated from patients who failed tamoxifen therapy
Tamoxifen and metabolite concentrations, individual animal (MCF-7 tumors [3]; resistant MCF-7 mouse tumors): 24.30 .eta.g/g tissue and 9.63 .eta.g/g tissue and 21.99 .eta.g/g tissue and 20.66 .eta.g/g tissue and 232.66 .eta.g/g tissue and 47.82 .eta.g/g tissue and 27.13 .eta.g/g tissue
Tamoxifen and metabolite concentrations, individual animal (MCF-7 tumors [3]; sensitive MCF-7 mouse tumors): 7.69 .eta.g/g tissue and 109.07 .eta.g/g tissue and 160.99 .eta.g/g tissue and 37.72 .eta.g/g tissue and 265.25 .eta.g/g tissue and 137.93 .eta.g/g tissue
Presence in dog bile ([6]; dog, in vivo): isolated from the bile of dogs
Share of radiolabeled compounds present in bile ([6]; dogs): approximately 6%
